This experiment concerns the target T1, PARP3 (Homo sapiens, UniProt Q9Y6F1).
T1 construct: made in house; host or cells: insect cells (Sf9 or High-Five), baculovirus, pFASTBAC-1
T1 sequence (Q9Y6F1 1-533): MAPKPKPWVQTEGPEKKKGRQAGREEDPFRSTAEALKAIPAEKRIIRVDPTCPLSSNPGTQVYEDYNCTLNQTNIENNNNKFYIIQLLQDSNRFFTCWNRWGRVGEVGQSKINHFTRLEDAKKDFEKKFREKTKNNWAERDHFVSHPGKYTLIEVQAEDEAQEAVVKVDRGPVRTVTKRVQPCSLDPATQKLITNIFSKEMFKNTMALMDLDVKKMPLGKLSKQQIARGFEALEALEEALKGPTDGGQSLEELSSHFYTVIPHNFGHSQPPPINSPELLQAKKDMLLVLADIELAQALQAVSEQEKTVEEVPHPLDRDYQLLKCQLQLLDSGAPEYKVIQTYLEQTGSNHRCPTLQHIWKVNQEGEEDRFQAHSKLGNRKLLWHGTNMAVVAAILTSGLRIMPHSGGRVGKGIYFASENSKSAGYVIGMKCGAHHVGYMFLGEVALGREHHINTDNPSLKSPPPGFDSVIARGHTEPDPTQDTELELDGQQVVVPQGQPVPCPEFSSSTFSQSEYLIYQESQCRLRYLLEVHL
The experiment in a line: PARP inhibition assay, selectivity PARP2 versus PARP3. Type of experiment: biochemical. To be noted: PARP2 compared with PARP3 as printed. Here is the method: Assay Systems for Determining the Activity of PARP2 and PARP3 and the Inhibitory Action of Effectors on PARP1, PARP2 and PARP3
Various concentrations were used to construct a dose-effect plot to determine the Ki value of an inhibitor. Values are obtained in triplicate for a particular inhibitor concentration. Arithmetic means are determined using Microsoft© Excel. The IC50 is determined using the Microcal© Origin Software (Vers. 5.0) (“Sigmoidal Fit”). Conversion of the IC50 value is calculated in this way into Ki values took place by using “calibration inhibitors”.
The “calibration inhibitors” were also measured in each analysis. The Ki values of the “calibration inhibitors” were determined in the same assay system by analysis of the Dixon diagram in the manner familiar to the skilled worker.
Measurement was then possible after 30 minutes (up to 4 hours). The measurement took place in a “discovery HTRF microplate analyzer” (Canberra Packard Instruments). The Ki values were calculated as described for the ELISA.

The structures appear in SMILES notation.

For `O=c1[nH]nc(CNc2ccc(O)cc2)c2ccccc12` [4-(N-(4-hydroxyphe-nyl)aminomethyl)-(2H)-dihydrophthalazine-1-one], the “selectivity for PARP2 over PARP3” value was “eight times”.

For the origin of these results see US9051553B2, “Poly(ADP-ribose) polymerase genes” (AbbVie Deutschland GmbH & Co. KG, priority 1998, dated 2015).
